Data published in patent US20130029970A1 (priority 2009, published 2013).
Where two headings read alike, the source gives them in different places.

Experiments:
[1] = biological target: T1, recombinant human cannabinoid receptor CB1 (Homo sapiens, UniProt P21554); assay: Cannabinoid receptor radioligand binding assay, [3H]-CP 55,940 displacement, hCB1
T1 construct: (cDNA clone) CNR01L000
Procedure, shortened: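 Membranes from HEK-293 cells stably expressing human CB1, 2-10 μg protein, incubated 90 min at room temperature with 0.5 nM [3H]-CP 55,940 in Tris-HCl pH 7.5, MgCl2, EDTA and 0.1% fatty-acid-free BSA. Bound radioactivity counted after rapid filtration; nonspecific binding defined with 1 μM unlabeled CP 55,940.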

human CB2 receptors = biological target: T2, human CB2 receptors (Homo sapiens, UniProt P34972); assay: cAMP assay in HEK-293 cells, hCB2 agonist; format: cell-based
T2 construct: (cDNA clone) CNR0200000
T2 sequence (P34972 whole entry): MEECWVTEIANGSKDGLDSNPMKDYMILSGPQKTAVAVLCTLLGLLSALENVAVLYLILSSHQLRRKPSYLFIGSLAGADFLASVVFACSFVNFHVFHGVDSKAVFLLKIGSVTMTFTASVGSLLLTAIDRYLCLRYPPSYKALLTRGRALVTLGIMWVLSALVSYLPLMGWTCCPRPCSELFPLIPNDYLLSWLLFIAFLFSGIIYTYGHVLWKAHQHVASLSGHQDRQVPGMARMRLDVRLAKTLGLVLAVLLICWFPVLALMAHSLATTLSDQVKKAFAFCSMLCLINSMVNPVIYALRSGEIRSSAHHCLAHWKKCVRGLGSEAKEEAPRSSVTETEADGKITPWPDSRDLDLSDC
Procedure, shortened: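 HEK-293 cells stably expressing human CB2, suspended at 1,500,000 cells/mL in HBSS with 10 mM HEPES and 0.1% fatty-acid-free BSA, exposed to test compound plus forskolin (90 uM in the 3× compound solution) for 30 min at 37° C.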

human CB1 (hCB1) = biological target: T3, human CB1 (hCB1) (Homo sapiens, UniProt P21554); assay: 35S GTPγS binding assay, hCB1 agonist; format: biochemical; conditions: GTPγS agonist, HEK-293 membranes; read-out: hCB1 EC50 (GTPyS ag)
T3 construct: (cDNA clone) CNR01L000
T3 sequence (P21554 whole entry): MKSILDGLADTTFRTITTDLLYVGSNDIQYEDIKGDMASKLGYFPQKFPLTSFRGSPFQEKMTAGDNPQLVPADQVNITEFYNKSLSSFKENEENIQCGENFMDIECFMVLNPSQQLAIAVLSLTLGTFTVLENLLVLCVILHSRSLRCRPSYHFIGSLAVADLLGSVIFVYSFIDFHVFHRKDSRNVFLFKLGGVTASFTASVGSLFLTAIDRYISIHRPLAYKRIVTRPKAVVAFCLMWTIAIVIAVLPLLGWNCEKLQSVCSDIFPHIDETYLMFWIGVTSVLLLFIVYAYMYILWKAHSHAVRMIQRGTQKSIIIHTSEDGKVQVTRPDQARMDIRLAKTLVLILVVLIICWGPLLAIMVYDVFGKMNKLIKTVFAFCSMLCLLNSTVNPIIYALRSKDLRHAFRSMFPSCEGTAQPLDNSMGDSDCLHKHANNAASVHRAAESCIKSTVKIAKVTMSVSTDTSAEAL
Description: cDNA expression clones for human CB1 (hCB1, Genbank Accession No. AY225225) and human CB2 (hCB2, Genbank Accession No. AY242132) expressed in vector pcDNA3.1+ were purchased from UMR cDNA Resource Center, Rolla, Mo. (Clone ID CNR01L000 for hCB1; CNR0200000 for hCB2).
Stable, HEK-293-derived cell lines that recombinantly express hCBI or hCB2 were established. In brief, the clone hCB1 (CNR IL) or hCB2 (CNR2) was transfected into human embryonic kidney cells (HEK-293) using Lipofectamine 2000 (Gibco, Cat#11668-019) according to the manufacturer's protocol. Transfected clones were isolated by single colony purification and clones were screened for receptor expression using a whole cell, ^3H—CP 55,940 radioligand binding assay. HEK-293 stable cells were maintained in Dulbecco's modified Eagles medium (DMEM) containing 10% fetal bovine serum, 2 mM L-glutamine and 0.5 mg/mL G-418.
Membranes were isolated from transfected cells as follows. Monolayers of cultured cells were washed twice with phosphate-buffered saline (PBS). Cells were scraped into 20 mM HEPES, pH 7.4, 10 mM EDTA containing complete cocktail protease inhibitors (Roche, Catalog #11 697 498 001) and were homogenized by an electric-powered mechanical probe homogenizer (Omni GLH; probe G7-195S) for 40 seconds at 7000 rpm. Homogenates were centrifuged 10 minutes at 1000×g at 4° C. The supernatant was collected and was centrifuged for 1 hour at 40,000×g. The supernatant was then decanted and the resulting pellet was re-suspended in 20 mM HEPES, pH 7.4, 5 mM MgCl2, 1 mM EDTA, 10% sucrose with complete cocktail protease inhibitors. Protein concentration of membrane suspensions were measured by Bradford Protein Assay using bovine serum albumin as the standard (BioRad catalog #500-0006). Protein concentrations of membrane suspensions were adjusted with the final buffer in the range of 5 to 10 mg/mL and were stored at −80° C. until further use.
Functional assays which monitor G-protein coupled receptor or downstream cellular responses can be used to characterize potential CB1 receptor and/or CB2 receptor agonist or antagonist activities. Direct activation (or inhibition of activation) can be monitored using a GTPγS assay (membrane-based assay) or cAMP assay (whole cell-based assay).
^35S GTPγS binding assays were performed by incubating recombinant cell membranes prepared above (5 μg) in the presence of scintillation proximity assay beads (SPA beads, Catalog #RPNQ0252 GE Healthcare, Buckinghamshire, England) in GTPγS binding buffer [50 mM HEPES (pH 7.4), 100 mM NaCl, 5 mM MgCl2, 0.001% saponin (Sigma catalog #S4521)] supplemented with 20 uM GDP (Sigma catalog #G7127) in the presence or absence of test compound. The reaction was carried out in 96-well microplates with 0.1 nM [^35S]GTPγS (specific activity=1250 Ci/mmol; Perkin Elmer catalog #NEG030X250UC) in a final volume of 100 uL. After a 90 min room temperature incubation, the reaction was analyzed using a scintillation counter (Perkin Elmer Microbeta instrument). Binding data were analyzed using GraphPad Prism.

human CB2 (hCB2) = biological target: T4, human CB2 (hCB2) (Homo sapiens, UniProt P34972); assay: 35S GTPγS binding assay, hCB2 agonist; format: biochemical
T4 construct: (cDNA clone) CNR0200000
T4 sequence (P34972 whole entry): as the sequence (P34972 whole entry) above
Procedure, shortened: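 Membranes (5 μg) from cells transfected with hCB2 cDNA in pcDNA3.1+ incubated with SPA beads, 0.1 nM [35S]GTPγS and 20 uM GDP in 50 mM HEPES pH 7.4, 100 mM NaCl, 5 mM MgCl2, 0.001% saponin, ± test compound. Incubation 90 min at room temperature; bound label read by scintillation counting.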

human CB1 receptors = biological target: T5, human CB1 receptors (Homo sapiens, UniProt P21554); assay: cAMP assay in HEK-293 cells, hCB1 agonist; format: cell-based; conditions: inhibition of forskolin-stimulated cAMP, HEK-293 cells
T5 construct: (cDNA clone) CNR01L000
T5 sequence (P21554 whole entry): as the sequence (P21554 whole entry) above
Procedure, shortened: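 Stable hCB1 HEK-293 cells suspended in HBSS with 10 mM HEPES and 0.1% fatty acid-free BSA, incubated 30 min at 37° C. with compound plus forskolin (90 uM in the 3× compound solution). Lysed cAMP measured by enzyme-fragment kit; EC50 = 50% inhibition of forskolin-stimulated cAMP (forskolin maximum = 100%), sigmoidal fit.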

[2] = biological target: T6, recombinant human cannabinoid receptor CB2 (Homo sapiens, UniProt P34972); assay: Cannabinoid receptor radioligand binding assay, [3H]-CP 55,940 displacement, hCB2
T6 construct: (cDNA clone) CNR0200000
T6 sequence (P34972 whole entry): as the sequence (P34972 whole entry) above
Procedure, shortened: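 Membranes from hCB2-transfected cells, prepared by 1000×g then 40,000×g centrifugation, resuspended in 20 mM HEPES pH 7.4, 5 mM MgCl2, 1 mM EDTA, 10% sucrose.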

[3] = tested on: PBQ-induced writhing in the mouse; assay: Phenylbenzoquinone-induced (PBQ) writhing model
[4] = inhibition of forskolin-stimulated cAMP, HEK-293 cells, read-out: hCB2 EC50 (cAMP ag)
[5] = GTPγS agonist, HEK-293 membranes, read-out: hCB2 EC50 (GTPyS ag)
[6] = inhibition of forskolin-stimulated cAMP, HEK-293 cells

T1 sequence (P21554 whole entry): as the sequence (P21554 whole entry) above

SMILES	IC50 [1] [nM]	EC50 (human CB1 (hCB1)) [nM]	EC50 (human CB2 (hCB2); [5]) [nM]	EC50 (human CB2 receptors) [nM]	EC50 (human CB2 (hCB2)) [nM]	hCB1 EC50 (cAMP ag, nM) (human CB1 receptors)	also measured
COc1ccc(C(=O)c2cc3cc(C)n(CCN4CCC(F)(F)CC4)c3s2)cn1 [Compound 152, (6-(2-(4,4-difluoropiperidin-1-yl)ethyl)-5-methyl-6H-thieno[2,3-b]pyrrol-2-yl)(6-methoxypyridin-3-yl)methanone]	< 100	1000 to 10000	< 100	–	–	–	EC50 (human CB2 receptors; [4]): < 100 nM
COc1ccc(C(=O)c2cc3cc(C)n(CCCNS(=O)(=O)C(F)(F)F)c3s2)cc1 [Compound 154, 1,1,1-trifluoro-N-(3-(2-(4-methoxybenzoyl)-5-methyl-6H-thieno[2,3-b]pyrrol-6-yl)propyl)methanesulfonamide]	158	> 10000	–	100 to 1000	1000 to 10000	–	–
COc1ccc(C(=O)c2cc3cc(C)n(CC(=O)O)c3s2)cn1 [Compound 166, 2-(2-(6-methoxynicotinoyl)-5-methyl-6H-thieno[2,3-b]pyrrol-6-yl)acetic acid]	–	> 10000	> 10000	–	–	NS (NS means “Not Significant,” which means less than 30% agonist activity when compared to the positive control.)	hCB2 EC50 (cAMP ag, nM) (human CB2 receptors; [6]): NS (NS means “Not Significant,” which means less than 30% agonist activity when compared to the positive control.)
COc1ccc(C(=O)c2cc3cc(C)n(CCN4CC5CC4CO5)c3s2)cn1 (stereo not drawn) [Compound 169, (6-(2-(2-oxa-5-azabicyclo[2.2.1]heptan-5-yl)ethyl)-5-methyl-6H-thieno[2,3-b]pyrrol-2-yl)(6-methoxypyridin-3-yl)methanone]	100 to 1000	> 10000	1000 to 10000	–	–	NS (NS means “Not Significant,” which means less than 30% agonist activity when compared to the positive control.)	–
COc1ccc(C(=O)c2cc3cc(C)n(CC4CCNCC4)c3s2)cn1 [Compound 172, (6-methoxypyridin-3-yl)(5-methyl-6-(piperidin-4-ylmethyl)-6H-thieno[2,3-b]pyrrol-2-yl)methanone]	–	> 10000	> 10000	–	–	NS (NS means “Not Significant,” which means less than 30% agonist activity when compared to the positive control.)	hCB2 EC50 (cAMP ag, nM) (human CB2 receptors; [6]): NS (NS means “Not Significant,” which means less than 30% agonist activity when compared to the positive control.)
COc1ccc(C(=O)c2cc3cc(C)n(CC4CCCCO4)c3s2)cn1 (stereo not drawn) [Compound 173, (6-methoxypyridin-3-yl)(5-methyl-6-((tetrahydro-2H-pyran-2-yl)methyl)-6H-thieno[2,3-b]pyrrol-2-yl)methanone]	< 100	1000 to 10000	–	< 100	100 to 1000	–	–
COc1ccc(C(=O)c2cc3cc(C)n(CC4CCSCC4)c3s2)cn1 [Compound 175, (6-methoxypyridin-3-yl)(5-methyl-6-((tetrahydro-2H-thiopyran-4-yl)methyl)-6H-thieno[2,3-b]pyrrol-2-yl)methanone]	< 100	100 to 1000	–	< 100	< 100	–	IC50 [2]: 1000 to 10000 nM
COc1ccc(C(=O)c2cc3cc(C)n(CC(=O)O)c3s2)c(F)c1 [Compound 176, 2-(2-(2-fluoro-4-methoxybenzoyl)-5-methyl-6H-thieno[2,3-b]pyrrol-6-yl)acetic acid]	–	> 10000	> 10000	–	–	NS (NS means “Not Significant,” which means less than 30% agonist activity when compared to the positive control.)	EC50 (human CB2 receptors; [4]): < 100 nM
COc1ccc(C(=O)c2cc3cc(C)n(CC4COCCO4)c3s2)cn1 (stereo not drawn) [Compound 177, (6((1,4-dioxan-2-yl)methyl)-5-methyl-6H-thieno[2,3-b]pyrrol-2-yl)(6-methoxypyridin-3-yl)methanone]	–	> 10000	–	1000 to 10000	1000 to 10000	NS (NS means “Not Significant,” which means less than 30% agonist activity when compared to the positive control.)	–
COc1ccc(C(=O)c2cc3cc(C)n(CCN4CCCC4COCc4ccccc4)c3s2)cn1 (stereo not drawn) [Compound 178, (6-(2-(2-((benzyloxy)methyl)pyrrolidin-1-yl)ethyl)-5-methyl-6H-thieno[2,3-b]pyrrol-2-yl)(6-methoxypyridin-3-yl)methanone]	–	> 10000	–	–	> 10000	NS (NS means “Not Significant,” which means less than 30% agonist activity when compared to the positive control.)	hCB2 EC50 (cAMP ag, nM) (human CB2 receptors; [6]): NS (NS means “Not Significant,” which means less than 30% agonist activity when compared to the positive control.)
COc1cc(F)c(C(=O)c2cc3cc(C)n(CC4CCOCC4)c3s2)c(F)c1 [Compound 180, (2,6-difluoro-4-methoxyphenyl)(5-methyl-6-((tetrahydro-2H-pyran-4-yl)methyl)-6H-thieno[2,3-b]pyrrol-2-yl)methanone]	100 to 1000	1000 to 10000	–	< 100	< 100	–	–
Cc1cc2cc(C(=O)c3cccc(Cl)c3Cl)sc2n1CCN1CCOCC1 [Compound I-1]	–	–	–	–	–	–	Number of Writhes ([3]; Dose 30, IP): 0.4 ± 0.31; Number of Writhes ([3]; Dose 30, PO): 7.5 ± 1.91
Cc1cc2cc(C(=O)c3ccc(Cl)cc3)sc2n1CCN1CCOCC1 [Compound I-6]	–	–	–	–	–	–	Number of Writhes ([3]; Dose 30, PO): 3.7 ± 0.7
Cc1cc2cc(C(=O)c3ccc(Cl)cc3Cl)sc2n1CCN1CCOCC1 [Compound I-10]	–	–	–	–	–	–	Number of Writhes ([3]; Dose 30, PO): 3.7 ± 0.7
Cc1cc2cc(C(=O)c3ccccn3)sc2n1CCN1CCOCC1 [Compound I-16]	–	–	–	–	–	–	Number of Writhes ([3]; Dose 30, IP): 10.0 ± 2.76
CCS(=O)(=O)n1c(C)cc2cc(C(=O)c3cccc(Cl)c3Cl)sc21 [Compound I-25]	–	–	–	–	–	–	Number of Writhes ([3]; Dose 30, IP): 5.9 ± 2.46
